Where a name gives a salt, the structure may show the parent alone. The source made the active and inactive calls. The rule behind the calls is not given here. Peptide text beside a SMILES is read from it.
Tests used:
[1] = target: T1, L-lactate dehydrogenase B chain (Homo sapiens, UniProt P07195); assay: Binding affinity to recombinant full length human His-tagged LDH-1 (1 to 322 residues) expressed in Escherichia coli assessed as induction of thermal destabilization at 400 uM by nano differential scanning fluorimetry analysis
Target sequence in this assay (P07195 2-334 limits assumed): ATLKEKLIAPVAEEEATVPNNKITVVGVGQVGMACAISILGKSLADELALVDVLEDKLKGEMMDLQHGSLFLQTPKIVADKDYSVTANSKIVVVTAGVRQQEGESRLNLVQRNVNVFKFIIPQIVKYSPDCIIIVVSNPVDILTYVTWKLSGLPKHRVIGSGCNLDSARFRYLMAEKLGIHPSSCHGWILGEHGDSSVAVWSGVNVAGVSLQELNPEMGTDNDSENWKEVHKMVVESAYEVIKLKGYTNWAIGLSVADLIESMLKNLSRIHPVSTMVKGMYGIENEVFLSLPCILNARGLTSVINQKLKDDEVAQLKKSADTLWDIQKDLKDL

[2] = target: T2, L-lactate dehydrogenase A chain (Homo sapiens, UniProt P00338); assay: Binding affinity to human N-terminal His6-tagged LDH-5 expressed in Escherichia coli Rosetta (DE3) assessed as induction of thermal destabilization at 400 uM by nano differential scanning fluorimetry analysis
[3] = target: T2, L-lactate dehydrogenase A chain; assay: Binding affinity to human N-terminal His6-tagged LDH-5 expressed in Escherichia coli Rosetta (DE3) assessed as induction of thermal destabilization by measuring melting temperature at 400 uM by nano differential scanning fluorimetry analysis (reference value: 66 degree C)
[4] = target: T1, L-lactate dehydrogenase B chain; assay: Binding affinity to recombinant full length human His-tagged LDH-1 (1 to 322 residues) expressed in Escherichia coli assessed as induction of thermal destabilization by measuring change in melting temperature at 400 uM by nano differential scanning fluorimetry analysis
Target sequence in this assay (P07195 2-334 limits assumed): as above

[5] = target: T2, L-lactate dehydrogenase A chain; assay: Binding affinity to human N-terminal His6-tagged LDH-5 expressed in Escherichia coli Rosetta (DE3) assessed as induction of thermal destabilization by measuring change in melting temperature at 400 uM by nano differential scanning fluorimetry analysis
[6] = target: T2, L-lactate dehydrogenase A chain; assay: Binding affinity to truncated human N-terminal His6-tagged LDH-5 expressed in Escherichia coli Rosetta (DE3) assessed as induction of thermal destabilization by measuring melting temperature at 400 uM by nano differential scanning fluorimetry analysis
[7] = target: T2, L-lactate dehydrogenase A chain; assay: Binding affinity to human N-terminal His6-tagged human LDH-5 expressed in Escherichia coli Rosetta (DE3) assessed as induction of protein disruption by interacting with tetramerization site by Red-NHS fluorescence dye based microscale thermophoresis analysis
[8] = target: T2, L-lactate dehydrogenase A chain; assay: Binding affinity to truncated N-terminal His6-tagged human LDH-5 expressed in Escherichia coli Rosetta (DE3) assessed as induction of protein disruption by interacting with tetramerization site by Red-NHS fluorescence dye based microscale thermophoresis analysis
[9] = target: L-lactate dehydrogenase A chain (Oryctolagus cuniculus) (UniProt P13491); assay: Binding affinity to rabbit LDH-5 assessed as acid-induced dimerization by measuring fluorescence recovery at 0.75 uM to 400 uM pH 7.6 by nano differential scanning fluorimetry analysis
[10] = target: T1, L-lactate dehydrogenase B chain; assay: Competitive binding affinity to recombinant full length human His-tagged LDH-1 (1 to 322 residues) expressed in Escherichia coli assessed as protein-compound interaction at N-terminal domain after 5 mins by Red-NHS fluorescence dye based microscale thermophoresis analysis
Target sequence in this assay (P07195 2-334 limits assumed): as above

[11] = Conformational stability in sodium phosphate buffer assessed as increase in alpha-helicity with strong theta 206 band formation at 100 uM by circular dichroism method; assay type: physicochemical
[12] = target: T2, L-lactate dehydrogenase A chain; assay: Competitive binding affinity to human N-terminal His6-tagged LDH-5 expressed in Escherichia coli Rosetta (DE3) assessed as protein-compound interaction at N-terminal domain after 5 mins by Red-NHS fluorescence dye-based microscale thermophoresis analysis
[13] = target: T1, L-lactate dehydrogenase B chain; assay: Binding affinity to recombinant full length human His-tagged LDH-1 (1 to 322 residues) expressed in Escherichia coli assessed as thermal denaturation up to 500 uM by nano differential scanning fluorimetry analysis
Target sequence in this assay (P07195 2-334 limits assumed): as above

[14] = target: T2, L-lactate dehydrogenase A chain; assay: Binding affinity to human N-terminal His6-tagged LDH-5 expressed in Escherichia coli Rosetta (DE3) assessed as thermal denaturation up to 500 uM by nano differential scanning fluorimetry analysis
[15] = target: L-lactate dehydrogenase A chain (Oryctolagus cuniculus) (UniProt P13491); assay: Binding affinity to rabbit LDH-5 assessed as acid-induced dimerization by measuring fluorescence recovery at pH 7.6 by nano differential scanning fluorimetry analysis
[16] = target: L-lactate dehydrogenase A chain (Oryctolagus cuniculus) (UniProt P13491); assay: Binding affinity to rabbit LDH-M assessed as acid-induced dimerization by measuring fluorescence recovery at pH 5 by nano differential scanning fluorimetry analysis
[17] = target: T1, L-lactate dehydrogenase B chain; assay: Binding affinity to full length human N-terminal His6-tagged LDH-H expressed in Escherichia coli Rosetta (DE3) assessed as melting temperature heated up to 95 degree C for 3 mins by nano differential scanning fluorimetry analysis
Target sequence in this assay (P07195 2-334 limits assumed): as above

[18] = target: T1, L-lactate dehydrogenase B chain; assay: Binding affinity to truncated human N-terminal His6-tagged LDH-H expressed in Escherichia coli Rosetta (DE3) assessed as melting temperature heated up to 95 degree C for 3 mins by nano differential scanning fluorimetry analysis
Target sequence in this assay (P07195 2-334 limits assumed): as above

[19] = system: L-lactate dehydrogenase B chain (Homo sapiens), P07195 [T3A]; assay: Binding affinity to full length human N-terminal His6-tagged LDH-H T2A mutant expressed in Escherichia coli Rosetta (DE3) assessed as melting temperature heated up to 95 degree C for 3 mins by nano differential scanning fluorimetry analysis
[20] = system: L-lactate dehydrogenase B chain (Homo sapiens), P07195 [L4A]; assay: Binding affinity to full length human N-terminal His6-tagged LDH-H L3A mutant expressed in Escherichia coli Rosetta (DE3) assessed as melting temperature heated up to 95 degree C for 3 mins by nano differential scanning fluorimetry analysis
[21] = system: L-lactate dehydrogenase B chain (Homo sapiens), P07195 [K5A]; assay: Binding affinity to full length human N-terminal His6-tagged LDH-H K4A mutant expressed in Escherichia coli Rosetta (DE3) assessed as melting temperature heated up to 95 degree C for 3 mins by nano differential scanning fluorimetry analysis
[22] = system: L-lactate dehydrogenase B chain (Homo sapiens), P07195 [E6A]; assay: Binding affinity to full length human N-terminal His6-tagged LDH-H E5A mutant expressed in Escherichia coli Rosetta (DE3) assessed as melting temperature heated up to 95 degree C for 3 mins by nano differential scanning fluorimetry analysis
[23] = system: L-lactate dehydrogenase B chain (Homo sapiens), P07195 [K7A]; assay: Binding affinity to full length human N-terminal His6-tagged LDH-H K6A mutant expressed in Escherichia coli Rosetta (DE3) assessed as melting temperature heated up to 95 degree C for 3 mins by nano differential scanning fluorimetry analysis
[24] = system: L-lactate dehydrogenase B chain (Homo sapiens), P07195 [L8A]; assay: Binding affinity to full length human N-terminal His6-tagged LDH-H L7A mutant expressed in Escherichia coli Rosetta (DE3) assessed as melting temperature heated up to 95 degree C for 3 mins by nano differential scanning fluorimetry analysis
[25] = system: L-lactate dehydrogenase B chain (Homo sapiens), P07195 [I9A]; assay: Binding affinity to full length human N-terminal His6-tagged LDH-H I8A mutant expressed in Escherichia coli Rosetta (DE3) assessed as melting temperature heated up to 95 degree C for 3 mins by nano differential scanning fluorimetry analysis
[26] = system: L-lactate dehydrogenase B chain (Homo sapiens), P07195 [L4A]; assay: Binding affinity to full length human N-terminal His6-tagged LDH-H L3A mutant expressed in Escherichia coli Rosetta (DE3) assessed as change in melting temperature heated up to 95 degree C for 3 mins by nano differential scanning fluorimetry analysis
[27] = system: L-lactate dehydrogenase B chain (Homo sapiens), P07195 [I9A]; assay: Binding affinity to full length human N-terminal His6-tagged LDH-H I8A mutant expressed in Escherichia coli Rosetta (DE3) assessed as changed in melting temperature heated up to 95 degree C for 3 mins by nano differential scanning fluorimetry analysis
[28] = target: L-lactate dehydrogenase B chain (Homo sapiens, UniProt P07195, T3A); assay: Binding affinity full length human N-terminal His6-tagged LDH-H T2A mutant expressed in Escherichia coli Rosetta (DE3) assessed as tetrameric disruption by nano differential scanning fluorimetry analysis
[29] = target: L-lactate dehydrogenase B chain (Homo sapiens, UniProt P07195, L4A); assay: Binding affinity full length human N-terminal His6-tagged LDH-H L3A mutant expressed in Escherichia coli Rosetta (DE3) assessed as tetrameric disruption by nano differential scanning fluorimetry analysis
[30] = target: L-lactate dehydrogenase B chain (Homo sapiens, UniProt P07195, K5A); assay: Binding affinity full length human N-terminal His6-tagged LDH-H K4A mutant expressed in Escherichia coli Rosetta (DE3) assessed as tetrameric disruption by nano differential scanning fluorimetry analysis
[31] = target: L-lactate dehydrogenase B chain (Homo sapiens, UniProt P07195, K7A); assay: Binding affinity full length human N-terminal His6-tagged LDH-H K6A mutant expressed in Escherichia coli Rosetta (DE3) assessed as tetrameric disruption by nano differential scanning fluorimetry analysis
[32] = target: L-lactate dehydrogenase B chain (Homo sapiens, UniProt P07195, I9A); assay: Binding affinity full length human N-terminal His6-tagged LDH-H I8A mutant expressed in Escherichia coli Rosetta (DE3) assessed as tetrameric disruption by nano differential scanning fluorimetry analysis
[33] = target: T1, L-lactate dehydrogenase B chain; assay: Binding affinity to full length human N-terminal His6-tagged LDH-H expressed in Escherichia coli Rosetta (DE3) in sodium phosphate buffer at pH 7.6 by WaterLOGSY NMR analysis
Target sequence in this assay (P07195 whole entry, the tested form may be a part): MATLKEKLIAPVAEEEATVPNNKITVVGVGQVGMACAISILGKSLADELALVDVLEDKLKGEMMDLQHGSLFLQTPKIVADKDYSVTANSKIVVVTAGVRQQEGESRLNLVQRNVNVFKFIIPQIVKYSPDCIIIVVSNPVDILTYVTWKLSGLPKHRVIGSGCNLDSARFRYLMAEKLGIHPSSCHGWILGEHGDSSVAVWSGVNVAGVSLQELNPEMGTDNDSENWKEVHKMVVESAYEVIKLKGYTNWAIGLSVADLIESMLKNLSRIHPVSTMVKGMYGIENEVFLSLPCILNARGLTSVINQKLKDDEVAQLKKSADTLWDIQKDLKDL

[34] = target: T1, L-lactate dehydrogenase B chain; assay: Binding affinity to full length human N-terminal His6-tagged LDH-H expressed in Escherichia coli Rosetta (DE3) assessed as saturation transfer at lipophilic residues at 800 uM in sodium phosphate buffer at pH 7.6 by WaterLOGSY NMR analysis
[35] = Conformational stability in water assessed as helical structural propensity by circular dichroism method; assay type: physicochemical; details: buffer
[36] = Conformational stability in water assessed as helical structural propensity by 2D NMR-ROESY analysis; assay type: physicochemical; details: buffer
[37] = Conformational stability in sodium phosphate buffer assessed as increase in alpha-helicity with theta 222 band formation at 100 uM by circular dichroism method; assay type: physicochemical
[38] = target: T1, L-lactate dehydrogenase B chain; assay: Binding affinity to recombinant full length human His-tagged LDH-1 (1 to 322 residues) expressed in Escherichia coli by WaterLOGSY NMR analysis
Target sequence in this assay (P07195 whole entry, the tested form may be a part): as above

[39] = target: L-lactate dehydrogenase A chain (Oryctolagus cuniculus) (UniProt P13491); assay: Binding affinity to rabbit LDH-5 assessed as acid-induced dimerization by measuring fluorescence recovery at 50 uM pH 7.6 by nano differential scanning fluorimetry analysis
[40] = target: T1, L-lactate dehydrogenase B chain; assay: Binding affinity to full length human N-terminal His6-tagged LDH-H expressed in Escherichia coli Rosetta (DE3) measured after 5 mins by Red-NHS fluorescent dye based microscale thermophoresis analysis
Target sequence in this assay (P07195 whole entry, the tested form may be a part): as above

[41] = target: T1, L-lactate dehydrogenase B chain; assay: Binding affinity to full length human N-terminal His6-tagged LDH-H expressed in Escherichia coli Rosetta (DE3) assessed as saturation transfer stemming at 800 uM in sodium phosphate buffer at pH 7.6 by WaterLOGSY NMR analysis
[42] = target: T1, L-lactate dehydrogenase B chain; assay: Binding affinity to full length human N-terminal His6-tagged LDH-H expressed in Escherichia coli Rosetta (DE3) assessed as saturation transfer at N-terminal residues at 800 uM phosphate buffer at pH 7 by 2D NMR-TOCSY analysis
[43] = target: T1, L-lactate dehydrogenase B chain; assay: Binding affinity to full length human N-terminal His6-tagged LDH-H expressed in Escherichia coli Rosetta (DE3) assessed as saturation transfer at C-terminal residues at 800 uM phosphate buffer at pH 7 by 2D NMR-TOCSY analysis
[44] = target: T1, L-lactate dehydrogenase B chain; assay: Binding affinity to recombinant full length human His-tagged LDH-1 (1 to 322 residues) expressed in Escherichia coli at 800 uM by WaterLOGSY NMR analysis
Target sequence in this assay (P07195 whole entry, the tested form may be a part): as above

[45] = target: T1, L-lactate dehydrogenase B chain; assay: Inhibition of recombinant full length human His-tagged LDH-1 (1 to 322 residues) expressed in Escherichia coli at 800 uM by WaterLOGSY NMR analysis
Target sequence in this assay (P07195 whole entry, the tested form may be a part): as above

Chain of L-lactate dehydrogenase B chain (Homo sapiens), P07195 [I9A] (P07195 whole entry I9A): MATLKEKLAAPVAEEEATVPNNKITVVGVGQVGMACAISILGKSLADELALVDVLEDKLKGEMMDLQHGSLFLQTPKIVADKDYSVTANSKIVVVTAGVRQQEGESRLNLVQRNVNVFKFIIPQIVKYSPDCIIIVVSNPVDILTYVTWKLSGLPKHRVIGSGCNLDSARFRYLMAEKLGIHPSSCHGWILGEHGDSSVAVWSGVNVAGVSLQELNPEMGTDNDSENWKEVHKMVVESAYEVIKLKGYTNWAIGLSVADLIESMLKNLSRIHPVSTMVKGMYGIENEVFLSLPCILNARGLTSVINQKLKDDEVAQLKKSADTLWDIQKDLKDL
Chain of L-lactate dehydrogenase B chain (Homo sapiens), P07195 [L4A] (P07195 whole entry L4A): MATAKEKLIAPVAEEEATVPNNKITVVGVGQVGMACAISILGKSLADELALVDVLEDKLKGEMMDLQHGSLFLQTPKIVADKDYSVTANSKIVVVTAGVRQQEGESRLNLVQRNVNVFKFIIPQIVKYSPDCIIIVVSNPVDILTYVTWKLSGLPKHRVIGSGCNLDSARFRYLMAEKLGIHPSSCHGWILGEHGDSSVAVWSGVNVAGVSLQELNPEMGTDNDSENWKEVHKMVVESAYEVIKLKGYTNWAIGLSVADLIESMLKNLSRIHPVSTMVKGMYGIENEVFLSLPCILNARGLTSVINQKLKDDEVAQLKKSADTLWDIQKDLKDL
Chain of L-lactate dehydrogenase B chain (Homo sapiens, UniProt P07195, L4A) (P07195 2-334 L4A limits assumed): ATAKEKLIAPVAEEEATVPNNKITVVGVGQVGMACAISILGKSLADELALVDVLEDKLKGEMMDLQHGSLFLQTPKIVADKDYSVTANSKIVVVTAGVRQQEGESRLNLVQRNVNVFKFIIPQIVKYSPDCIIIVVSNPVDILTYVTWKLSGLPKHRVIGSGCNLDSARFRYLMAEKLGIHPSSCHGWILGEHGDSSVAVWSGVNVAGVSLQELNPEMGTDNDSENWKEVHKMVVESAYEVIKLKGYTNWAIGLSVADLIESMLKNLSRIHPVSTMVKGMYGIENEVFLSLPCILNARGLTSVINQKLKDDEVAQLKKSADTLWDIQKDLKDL
Chain of L-lactate dehydrogenase B chain (Homo sapiens, UniProt P07195, T3A) (P07195 2-334 T3A limits assumed): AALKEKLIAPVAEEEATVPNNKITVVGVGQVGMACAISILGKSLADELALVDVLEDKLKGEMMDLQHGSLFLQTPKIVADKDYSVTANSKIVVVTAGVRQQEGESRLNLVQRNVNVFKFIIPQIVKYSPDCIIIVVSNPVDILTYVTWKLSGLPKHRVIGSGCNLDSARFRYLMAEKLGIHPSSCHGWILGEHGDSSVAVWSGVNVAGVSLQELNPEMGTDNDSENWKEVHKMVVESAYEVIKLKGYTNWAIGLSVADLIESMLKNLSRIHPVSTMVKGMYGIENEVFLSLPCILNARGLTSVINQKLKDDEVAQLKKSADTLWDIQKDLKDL
Chain of L-lactate dehydrogenase B chain (Homo sapiens), P07195 [T3A] (P07195 whole entry T3A): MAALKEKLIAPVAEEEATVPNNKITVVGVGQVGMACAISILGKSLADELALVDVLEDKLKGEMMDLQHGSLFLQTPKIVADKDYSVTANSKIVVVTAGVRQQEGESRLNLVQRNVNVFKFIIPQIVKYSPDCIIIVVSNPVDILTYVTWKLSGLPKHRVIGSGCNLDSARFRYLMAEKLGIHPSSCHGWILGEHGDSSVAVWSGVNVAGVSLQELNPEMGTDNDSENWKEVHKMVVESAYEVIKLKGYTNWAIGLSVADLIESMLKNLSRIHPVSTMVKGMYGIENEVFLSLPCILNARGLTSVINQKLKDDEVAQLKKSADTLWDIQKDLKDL
Chain of L-lactate dehydrogenase B chain (Homo sapiens), P07195 [K7A] (P07195 whole entry K7A): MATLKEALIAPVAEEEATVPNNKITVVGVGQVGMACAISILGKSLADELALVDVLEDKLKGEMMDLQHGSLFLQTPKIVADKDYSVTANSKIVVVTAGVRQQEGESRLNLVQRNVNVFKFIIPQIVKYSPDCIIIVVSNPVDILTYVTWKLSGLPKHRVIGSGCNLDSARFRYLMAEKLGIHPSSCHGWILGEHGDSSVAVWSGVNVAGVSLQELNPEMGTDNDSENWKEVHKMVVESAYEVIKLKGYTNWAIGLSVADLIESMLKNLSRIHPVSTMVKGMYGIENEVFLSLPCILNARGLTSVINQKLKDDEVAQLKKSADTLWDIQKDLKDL
Chain of L-lactate dehydrogenase B chain (Homo sapiens, UniProt P07195, K7A) (P07195 2-334 K7A limits assumed): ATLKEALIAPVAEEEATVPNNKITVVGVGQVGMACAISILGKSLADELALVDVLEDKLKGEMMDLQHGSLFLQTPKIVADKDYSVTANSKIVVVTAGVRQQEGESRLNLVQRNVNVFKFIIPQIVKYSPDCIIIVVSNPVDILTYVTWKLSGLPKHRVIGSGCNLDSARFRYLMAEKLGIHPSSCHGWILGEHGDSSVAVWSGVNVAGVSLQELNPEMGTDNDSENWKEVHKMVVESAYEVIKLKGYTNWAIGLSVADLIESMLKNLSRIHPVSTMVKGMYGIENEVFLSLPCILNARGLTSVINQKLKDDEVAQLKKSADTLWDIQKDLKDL
Chain of L-lactate dehydrogenase B chain (Homo sapiens), P07195 [L8A] (P07195 whole entry L8A): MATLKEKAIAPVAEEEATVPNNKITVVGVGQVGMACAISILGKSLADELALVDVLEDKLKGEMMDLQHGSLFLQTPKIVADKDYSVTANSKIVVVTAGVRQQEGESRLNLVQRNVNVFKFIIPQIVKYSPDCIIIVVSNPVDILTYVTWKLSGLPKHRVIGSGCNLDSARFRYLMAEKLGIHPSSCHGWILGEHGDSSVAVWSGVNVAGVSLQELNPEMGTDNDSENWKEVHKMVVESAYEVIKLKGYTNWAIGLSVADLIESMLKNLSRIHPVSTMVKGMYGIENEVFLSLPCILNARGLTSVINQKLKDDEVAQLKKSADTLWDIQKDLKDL
Chain of L-lactate dehydrogenase B chain (Homo sapiens), P07195 [K5A] (P07195 whole entry K5A): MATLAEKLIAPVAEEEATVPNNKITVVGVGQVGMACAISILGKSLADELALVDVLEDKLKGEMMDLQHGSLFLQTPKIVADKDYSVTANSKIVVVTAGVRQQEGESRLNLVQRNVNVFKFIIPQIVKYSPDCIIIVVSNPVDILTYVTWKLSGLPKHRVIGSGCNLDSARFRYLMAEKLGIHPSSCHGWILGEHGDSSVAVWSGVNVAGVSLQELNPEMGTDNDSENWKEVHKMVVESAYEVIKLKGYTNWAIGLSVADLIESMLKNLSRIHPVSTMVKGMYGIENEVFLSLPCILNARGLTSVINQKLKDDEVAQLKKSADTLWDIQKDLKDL
Chain of L-lactate dehydrogenase B chain (Homo sapiens, UniProt P07195, K5A) (P07195 2-334 K5A limits assumed): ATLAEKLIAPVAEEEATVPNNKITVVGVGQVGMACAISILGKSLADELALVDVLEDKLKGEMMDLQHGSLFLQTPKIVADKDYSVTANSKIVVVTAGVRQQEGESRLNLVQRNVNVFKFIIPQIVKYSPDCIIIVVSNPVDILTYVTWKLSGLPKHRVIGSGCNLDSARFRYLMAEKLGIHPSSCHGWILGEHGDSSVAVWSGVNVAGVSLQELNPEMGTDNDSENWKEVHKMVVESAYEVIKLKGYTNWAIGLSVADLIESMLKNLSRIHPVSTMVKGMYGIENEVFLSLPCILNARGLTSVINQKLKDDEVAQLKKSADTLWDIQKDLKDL
Chain of L-lactate dehydrogenase B chain (Homo sapiens, UniProt P07195, I9A) (P07195 2-334 I9A limits assumed): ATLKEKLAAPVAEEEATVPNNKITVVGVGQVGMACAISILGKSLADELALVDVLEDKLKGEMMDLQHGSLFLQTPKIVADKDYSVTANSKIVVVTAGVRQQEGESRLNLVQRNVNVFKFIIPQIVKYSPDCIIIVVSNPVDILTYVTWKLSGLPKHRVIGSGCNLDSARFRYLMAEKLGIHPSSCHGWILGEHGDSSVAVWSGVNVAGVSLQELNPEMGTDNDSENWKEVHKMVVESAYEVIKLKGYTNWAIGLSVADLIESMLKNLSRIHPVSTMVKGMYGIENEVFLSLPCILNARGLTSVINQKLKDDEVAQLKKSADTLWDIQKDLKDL

## CC[C@H](C)[C@H](NC(=O)[C@H](CC(C)C)NC(=O)[C@H](CCCCN)NC(=O)[C@@H]1CSc2c(F)c(F)c(c(F)c2F)SC[C@H](N)C(=O)N[C@@H]([C@@H](C)O)C(=O)N[C@@H](CC(C)C)C(=O)N[C@@H](CCCCN)C(=O)N1)C(N)=O (HELM PEPTIDE1{C.T.L.K.C.K.L.I.[am]}|CHEM1{[Fc1c(F)c([*:2])c(F)c(F)c1[*:1]]}$PEPTIDE1,CHEM1,1:R3-1:R1|PEPTIDE1,CHEM1,5:R3-1:R2$$$V2.0)
[1]
  Activity: Active
[2]
  Activity: Active
[3]
  Tm: 61 °C
[4]
  ΔTm: -1.5 °C
[5]
  ΔTm: -5 °C
[6]
  Activity: inactive
[7]
  EC50: 0.172 mM
[8]
  Activity: inactive
[9]
  Activity: Active

## CC[C@H](C)[C@H](NC(=O)[C@H](CC(C)C)NC(=O)[C@H](CCCCN)NC(=O)[C@@H]1CSCc2cccc(c2)CSC[C@H](N)C(=O)N[C@@H]([C@@H](C)O)C(=O)N[C@@H](CC(C)C)C(=O)N[C@@H](CCCCN)C(=O)N1)C(N)=O (HELM PEPTIDE1{C.T.L.K.C.K.L.I.[am]}|CHEM1{[c1cc(C[*:1])cc(C[*:2])c1]}$PEPTIDE1,CHEM1,1:R3-1:R1|PEPTIDE1,CHEM1,5:R3-1:R2$$$V2.0)
[10]
  Activity: inactive
[11]
  Stability: Stable
[12]
  Activity: inactive
[13]
  Activity: inactive
[14]
  Activity: inactive
[15]
  Activity: Active
[16]
  Activity: inactive

## N=C(N)N [GUANIDINE HYDROCHLORIDE]
[17]
  Tm: 74.5 °C
[18]
  Tm: 57.5 °C
[19]
  Tm: 72.4 °C
[20]
  Tm: 61.2 °C
[21]
  Tm: 65.8 °C
[22]
  Tm: 73.3 °C
[23]
  Tm: 67.9 °C
[24]
  Tm: 55.6 °C
[25]
  Tm: 49.9 °C
[26]
  ΔTm: 13.3 °C
[27]
  ΔTm: 24.6 °C
[28]
  EC50: 978 mM
[29]
  EC50: 624 mM
[30]
  EC50: 991 mM
[31]
  EC50: 954 mM
[32]
  EC50: 233 mM

## H-ATLKEKLI-NH2
[33]
  Kd: 1.02 mM
[34]
  Activity: Active
[35]
  Stability: Unstable
[36]
  Stability: Unstable
[37]
  Stability: Stable
[38]
  Activity: Not Active
[39]
  Activity: Active

## H-ATLKEKLIAPVAEEEATVP-NH2
[40]
  Kd: 1.78 mM
[41]
  Activity: Active
[42]
  Activity: Active
[43]
  Activity: Active
[44]
  Activity: Not Active
[45]
  inhibition (INH): Not Active
[38]
  Activity: Not Active

Source: ChEMBL document CHEMBL4402594, “Interrogating the Lactate Dehydrogenase Tetramerization Site Using (Stapled) Peptides” (J Med Chem, 2020)
